Measured values published in ChEMBL document CHEMBL3045857, “Monitoring of spirodiclofen susceptibility in field populations of European red mites, Panonychus ulmi (Koch) (Acari: Tetranychidae), and the cross-resistance pattern of a laboratory-selected strain” (2011).
Values after ≈ are worked out from the molar mass of the structure shown.

Legend:
Format in all cases: functional
Panonychus ulmi [1] = test: Insecticidal activity against Panonychus ulmi HS in plum tree leaf assessed as mortality at adult stage compound treated by spray application measured after 7 to 8 days treatment
Panonychus ulmi [2] = test: Insecticidal activity against Panonychus ulmi PSR-TK in plum tree leaf assessed as mortality at adult stage compound treated by spray application measured after 7 to 8 days treatment
Panonychus ulmi [3] = test: Resistance ratio, LC50 for adult Panonychus ulmi HS to LC50 for adult Panonychus ulmi PSR TK
Panonychus ulmi [4] = test: Resistance ratio, LC50 for larvae Panonychus ulmi HS to LC50 for larvae Panonychus ulmi PSR TK
Panonychus ulmi [5] = test: Insecticidal activity against Panonychus ulmi PSR-TK in plum tree leaf assessed as mortality at egg stage compound treated by spray application measured after 7 to 8 days treatment
Panonychus ulmi [6] = test: Insecticidal activity against Panonychus ulmi HS in plum tree leaf assessed as larvae mortality compound treated by spray application measured after 7 to 8 days treatment
Panonychus ulmi [7] = test: Resistance ratio, LC50 for adult Panonychus ulmi HS to LC50 for adult Panonychus ulmi GE 16/09
Panonychus ulmi [8] = test: Insecticidal activity against Panonychus ulmi HS in plum tree leaf assessed as egg mortality compound treated by spray application measured after 7 to 8 days treatment
Panonychus ulmi [9] = test: Resistance ratio, LC50 for egg Panonychus ulmi HS to LC50 for egg Panonychus ulmi PSR TK
Panonychus ulmi [10] = test: Insecticidal activity against Panonychus ulmi PSR-TK in plum tree leaf assessed as mortality at larvae stage compound treated by spray application measured after 7 to 8 days treatment
Panonychus ulmi [11] = test: Resistance ratio, LC50 for larvae Panonychus ulmi Ge13/09 to LC50 for larvae Panonychus ulmi HS
Panonychus ulmi [12] = test: Insecticidal activity against Panonychus ulmi Ge15/09 in plum tree leaf assessed as egg mortality compound treated by spray application measured after 7 to 8 days treatment
Panonychus ulmi [13] = test: Resistance ratio, LC50 for egg Panonychus ulmi Ge13/09 to LC50 for egg Panonychus ulmi HS
Panonychus ulmi [14] = test: Resistance ratio, LC50 for larvae Panonychus ulmi Ge14/09 to LC50 for larvae Panonychus ulmi HS
Panonychus ulmi [15] = test: Insecticidal activity against Panonychus ulmi Ge15/09 in plum tree leaf assessed as larvae mortality compound treated by spray application measured after 7 to 8 days treatment
Panonychus ulmi [16] = test: Insecticidal activity against Panonychus ulmi Ge16/09 in plum tree leaf assessed as larvae mortality compound treated by spray application measured after 7 to 8 days treatment
Panonychus ulmi [17] = test: Insecticidal activity against Panonychus ulmi Ge14/09 in plum tree leaf assessed as larvae mortality compound treated by spray application measured after 7 to 8 days treatment
Panonychus ulmi [18] = test: Resistance ratio, LC50 for larvae Panonychus ulmi Ge16/09 to LC50 for larvae Panonychus ulmi HS
Panonychus ulmi [19] = test: Insecticidal activity against Panonychus ulmi Ge13/09 in plum tree leaf assessed as larvae mortality compound treated by spray application measured after 7 to 8 days treatment
Panonychus ulmi [20] = test: Insecticidal activity against Panonychus ulmi Ge13/09 in plum tree leaf assessed as egg mortality compound treated by spray application measured after 7 to 8 days treatment
Panonychus ulmi [21] = test: Resistance ratio, LC50 for egg Panonychus ulmi Ge15/09 to LC50 for egg Panonychus ulmi HS
Panonychus ulmi [22] = test: Resistance ratio, LC50 for egg Panonychus ulmi Ge16/09 to LC50 for egg Panonychus ulmi HS
Panonychus ulmi [23] = test: Insecticidal activity against Panonychus ulmi Ge14/09 in plum tree leaf assessed as egg mortality compound treated by spray application measured after 7 to 8 days treatment
Panonychus ulmi [24] = test: Resistance ratio, LC50 for egg Panonychus ulmi Ge14/09 to LC50 for egg Panonychus ulmi HS
Panonychus ulmi [25] = test: Insecticidal activity against Panonychus ulmi Ge16/09 in plum tree leaf assessed as egg mortality compound treated by spray application measured after 7 to 8 days treatment
Panonychus ulmi [26] = test: Resistance ratio, LC50 for larvae Panonychus ulmi Ge15/09 to LC50 for larvae Panonychus ulmi HS

Structure (SMILES) | LC50 (Panonychus ulmi [1]) | LC50 (Panonychus ulmi [2]) | RatioLC50 (Panonychus ulmi [3]) | RatioLC50 (Panonychus ulmi [4]) | LC50 (Panonychus ulmi [5]) | LC50 (Panonychus ulmi [6]) | LC50 (Panonychus ulmi [8]) | RatioLC50 (Panonychus ulmi [9]) | LC50 (Panonychus ulmi [10]) | other results
Cc1nn(C)c(/C(OC(=O)C(C)(C)C)=C(\C#N)c2ccc(C(C)(C)C)cc2)c1C [CYENOPYRAFEN] | 0.3 µg/mL (≈ 0.762 µM) | 7.13 µg/mL (≈ 18.1 µM) | 23.5 | – | – | – | – | – | – | –
C[C@@H]1[C@@H](c2ccc(Cl)cc2)SC(=O)N1C(=O)NC1CCCCC1 [HEXYTHIAZOX] | – | – | – | >20000 | 4.32 µg/mL (≈ 12.2 µM) | 0.43 µg/mL (≈ 1.22 µM) | 5.99 µg/mL (≈ 17 µM) | >1600 | 4.05 µg/mL (≈ 11.5 µM) | RatioLC50 (Panonychus ulmi [7]): >20000
CCCCCCCCCCCCC1=C(OC(C)=O)C(=O)c2ccccc2C1=O [ACEQUINOCYL] | 2.75 µg/mL (≈ 7.15 µM) | 1.3 µg/mL (≈ 3.38 µM) | 3 | – | – | – | – | – | – | –
Clc1ccccc1-c1nnc(-c2ccccc2Cl)nn1 [CLOFENTEZINE] | – | – | – | >1800 | > 10000 µg/mL | 5.53 µg/mL (≈ 18.2 µM) | 61.3 µg/mL (≈ 202 µM) | >160 | > 10000 µg/mL | RatioLC50 (Panonychus ulmi [7]): >3900
CCOC(=O)OC1=C(c2cc(C)ccc2C)C(=O)N[C@]12CC[C@@H](OC)CC2 [SPIROTETRAMAT] | – | – | – | 3 | – | 1.09 µg/mL (≈ 2.92 µM) | – | – | 538 µg/mL (≈ 1440 µM) | –
COc1ccc(-c2ccccc2)cc1NNC(=O)OC(C)C [BIFENAZATE] | 1.42 µg/mL (≈ 4.73 µM) | 1.3 µg/mL (≈ 4.33 µM) | 1 | – | – | – | – | – | – | –
Cc1cc(C)c(C2=C(OC(=O)CC(C)(C)C)C3(CCCC3)OC2=O)c(C)c1 [SPIROMESIFEN] | – | – | – | 30.4 | 0.36 µg/mL (≈ 0.972 µM) | 0.13 µg/mL (≈ 0.351 µM) | 1.07 µg/mL (≈ 2.89 µM) | 4 | 3.73 µg/mL (≈ 10.1 µM) | –
CCOc1cc(C(C)(C)C)ccc1C1COC(c2c(F)cccc2F)=N1 (stereo not given) [ETOXAZOLE] | – | – | – | 10 | – | 0.15 µg/mL (≈ 0.417 µM) | – | – | > 10000 µg/mL | –
CCc1nn(C)c(C(=O)NCc2ccc(C(C)(C)C)cc2)c1Cl [TEBUFENPYRAD] | 0.37 µg/mL (≈ 1.11 µM) | 11.2 µg/mL (≈ 33.5 µM) | 30.3 | – | – | – | – | – | – | –
CCC(C)(C)C(=O)OC1=C(c2ccc(Cl)cc2Cl)C(=O)OC12CCCCC2 [SPIRODICLOFEN] | – | – | – | >7000 | > 10000 µg/mL | 1.39 µg/mL (≈ 3.38 µM) | 0.52 µg/mL (≈ 1.26 µM) | 56 | > 10000 µg/mL | RatioLC50 (Panonychus ulmi [11]): 12; LC50 (Panonychus ulmi [12]): 0.96 µg/mL (≈ 2.33 µM); RatioLC50 (Panonychus ulmi [13]): 1.1; RatioLC50 (Panonychus ulmi [14]): 33; LC50 (Panonychus ulmi [15]): 27.6 µg/mL (≈ 67.1 µM); LC50 (Panonychus ulmi [16]): 59.6 µg/mL (≈ 145 µM); LC50 (Panonychus ulmi [17]): 33 µg/mL (≈ 80.2 µM); RatioLC50 (Panonychus ulmi [18]): 59; LC50 (Panonychus ulmi [19]): 12.1 µg/mL (≈ 29.4 µM); LC50 (Panonychus ulmi [20]): 0.59 µg/mL (≈ 1.43 µM); RatioLC50 (Panonychus ulmi [21]): 1.8; RatioLC50 (Panonychus ulmi [22]): 1.2; LC50 (Panonychus ulmi [23]): 1.53 µg/mL (≈ 3.72 µM); RatioLC50 (Panonychus ulmi [24]): 2.9; LC50 (Panonychus ulmi [25]): 0.66 µg/mL (≈ 1.6 µM); RatioLC50 (Panonychus ulmi [26]): 27
